Measured values reported in ChEMBL document CHEMBL3885861, “Open TG-GATES”.

Species on record: Rattus norvegicus
Test: Open TG-GATES - Regimen: Daily Repeat
Type: toxicity, organism-based, Sprague-Dawley
Parameters: regimen Daily Repeat, gender Male, age 6 weeks
Settings: in vivo, po, route gavage; for ALP / ALT / AST / BUN / CRE / DBIL / GLC / IP / K / LDH / Na / RALB / TBIL / TC / TG / TP / gamma-GTP: tissue Plasma; for Bas / Eos / Fbg / Lym / MCH / MCHC / MCV / Mono / Neu / PT / Plat / RBC / Ret / WBC: tissue Blood; for KIDNEY_L / KIDNEY_R / KIDNEY_TOTAL: tissue Kidney
[1] = 3 mg/kg, […], dose level Low, time 28 day
[2] = 10 mg/kg, 72 h, dose level Middle, time 3 day
[3] = 10 mg/kg, […], dose level Middle, time 7 day
[4] = 10 mg/kg, […], dose level Middle, time 14 day
[5] = 10 mg/kg, […], dose level Middle, time 28 day
[6] = 30 mg/kg, 72 h, dose level High, time 3 day
[7] = 30 mg/kg, […], dose level High, time 7 day
[8] = 30 mg/kg, […], dose level High, time 14 day

Compound `Cc1cnc(NC(=O)C2=C(O)c3ccccc3S(=O)(=O)N2C)s1` [MELOXICAM] has an ALP [1] of 620 IU/L, an ALT [1] of 33.6 IU/L and an AST [1] of 64.4 IU/L. It also gave a BUN [1] of 18.2 mg/dL, a CRE [1] of 0.5 mg/dL and a DBIL [1] of 0.1 mg/dL. It also gave a GLC [1] of 235.2 mg/dL, an IP [1] of 7.2 mg/dL and a K [1] of 3.9 meq/L. For the same compound, the LDH [1] was 170.8 IU/L, the Na [1] was 142 meq/L and the RALB [1] was 3.5 g/dL. It also gave a TBIL [1] of 0.2 mg/dL, a TC [1] of 71.2 mg/dL and a TG [1] of 121.6 mg/dL. It also gave a TP [1] of 5.9 g/dL, a gamma-GTP [1] of 1.2 IU/L and a TERMINAL_BW [2] of 246.9 g. For the same compound, the Bas [2] was 0.8%, the Eos [2] was 0.6% and the Fbg [2] was 248.8 mg/dL. It also gave a Lym [2] of 71.4%, an MCH [2] of 21.7 pg and an MCHC [2] of 34.1%. The MCV [2] was 63.6 fL, the Mono [2] was 3.4% and the Neu [2] was 23.4%. The PT [2] was 11.7 s, the Plat [2] was 127 x10_4/uL and the RBC [2] was 635.2 x10_4/ul. It also gave a Ret [2] of 6%, a WBC [2] of 135.2 x10_2/uL and a KIDNEY_L [2] of 1.1 g. For the same compound, the KIDNEY_R [2] was 1.1 g, the KIDNEY_TOTAL [2] was 2.3 g and the ALP [2] was 919 IU/L. The ALT [2] was 43.2 IU/L, the AST [2] was 75.4 IU/L and the CRE [2] was 0.4 mg/dL. It also gave a DBIL [2] of 0.1 mg/dL, an IP [2] of 7.5 mg/dL and a K [2] of 4.1 meq/L. The LDH [2] was 242.6 IU/L, the Na [2] was 142.2 meq/L and the RALB [2] was 3.5 g/dL. For the same compound, the TBIL [2] was 0.2 mg/dL, the TC [2] was 79 mg/dL and the TG [2] was 129.2 mg/dL. The TP [2] was 5.7 g/dL, the gamma-GTP [2] was 1 IU/L and the TERMINAL_BW [3] was 277.9 g. For the same compound, the TERMINAL_BW [4] was 321.8 g, the TERMINAL_BW [5] was 398.2 g and the Bas [3] was 0.6%. The Eos [3] was 1%, the Fbg [3] was 223.8 mg/dL and the Lym [3] was 73.8%. For the same compound, the MCH [3] was 21.5 pg, the MCHC [3] was 34.5% and the MCV [3] was 62.2 fL. For the same compound, the Mono [3] was 2.8%, the Neu [3] was 21.8% and the PT [3] was 11.9 s. It also gave an RBC [3] of 633 x10_4/ul, a Ret [3] of 5.4% and a WBC [3] of 119.8 x10_2/uL. For the same compound, the Bas [4] was 1%, the Eos [4] was 0.8% and the Fbg [4] was 234.2 mg/dL. The Lym [4] was 74.2%, the MCH [4] was 20.3 pg and the MCHC [4] was 33.7%. It also gave an MCV [4] of 60 fL, a Mono [4] of 3% and a Neu [4] of 21.2%. It also gave a PT [4] of 11.6 s, a Plat [4] of 116.5 x10_4/uL and an RBC [4] of 699.4 x10_4/ul. The Ret [4] was 4.5%, the WBC [4] was 135.2 x10_2/uL and the Bas [5] was 1%. For the same compound, the Eos [5] was 1%, the Fbg [5] was 242.8 mg/dL and the Lym [5] was 73%. It also gave an MCH [5] of 19.4 pg, an MCHC [5] of 33.9% and an MCV [5] of 57.2 fL. It also gave a Mono [5] of 3.2%, a Neu [5] of 21.4% and a PT [5] of 11.5 s. For the same compound, the Plat [5] was 118.5 x10_4/uL, the RBC [5] was 740.6 x10_4/ul and the Ret [5] was 3.4%. The WBC [5] was 170.5 x10_2/uL, the KIDNEY_L [3] was 1.2 g and the KIDNEY_R [3] was 1.2 g. It also gave a KIDNEY_TOTAL [3] of 2.4 g, a KIDNEY_L [4] of 1.4 g and a KIDNEY_R [4] of 1.4 g. It also gave a KIDNEY_TOTAL [4] of 2.7 g, a KIDNEY_L [5] of 1.5 g and a KIDNEY_R [5] of 1.5 g. For the same compound, the KIDNEY_TOTAL [5] was 3 g, the ALP [3] was 952.8 IU/L and the ALT [3] was 34.2 IU/L. It also gave an AST [3] of 72.6 IU/L, a CRE [3] of 0.5 mg/dL and a DBIL [3] of 0.094 mg/dL. It also gave an IP [3] of 7.5 mg/dL, a K [3] of 4.2 meq/L and an LDH [3] of 197.8 IU/L. For the same compound, the Na [3] was 141.4 meq/L, the RALB [3] was 3.4 g/dL and the TBIL [3] was 0.2 mg/dL. The TC [3] was 68.4 mg/dL, the TG [3] was 96.4 mg/dL and the TP [3] was 5.6 g/dL. The gamma-GTP [3] was 3.4 IU/L, the ALP [4] was 873.6 IU/L and the ALT [4] was 38.6 IU/L. For the same compound, the AST [4] was 72.8 IU/L, the BUN [4] was 17.8 mg/dL and the CRE [4] was 0.4 mg/dL. It also gave a DBIL [4] of 0.1 mg/dL, an IP [4] of 7.2 mg/dL and a K [4] of 4 meq/L. For the same compound, the LDH [4] was 185.4 IU/L, the Na [4] was 142.6 meq/L and the RALB [4] was 3.5 g/dL. The TBIL [4] was 0.2 mg/dL, the TC [4] was 67.2 mg/dL and the TG [4] was 128.6 mg/dL. It also gave a TP [4] of 5.9 g/dL, a gamma-GTP [4] of 1 IU/L and an ALP [5] of 643.2 IU/L. The ALT [5] was 33.2 IU/L, the AST [5] was 66 IU/L and the BUN [5] was 17 mg/dL. For the same compound, the CRE [5] was 0.5 mg/dL, the DBIL [5] was 0.096 mg/dL and the GLC [5] was 244 mg/dL. For the same compound, the IP [5] was 7.3 mg/dL, the K [5] was 3.9 meq/L and the LDH [5] was 176.8 IU/L. It also gave a Na [5] of 141.8 meq/L, an RALB [5] of 3.2 g/dL and a TBIL [5] of 0.2 mg/dL. It also gave a TC [5] of 65.2 mg/dL, a TG [5] of 121.4 mg/dL and a TP [5] of 5.7 g/dL. It also gave a gamma-GTP [5] of 0.8 IU/L, a TERMINAL_BW [6] of 230.2 g and a Bas [6] of 0.6%. It also gave an Eos [6] of 0.4%, a Fbg [6] of 378.4 mg/dL and a Lym [6] of 66.6%. For the same compound, the MCH [6] was 21.2 pg, the MCHC [6] was 34.1% and the MCV [6] was 61.9 fL. For the same compound, the Mono [6] was 4.4%, the Neu [6] was 25.6% and the PT [6] was 11.6 s. For the same compound, the RBC [6] was 512.4 x10_4/ul, the Ret [6] was 7.1% and the WBC [6] was 150.3 x10_2/uL. It also gave a KIDNEY_L [6] of 1.2 g, a KIDNEY_R [6] of 1.2 g and a KIDNEY_TOTAL [6] of 2.5 g. For the same compound, the ALP [6] was 536 IU/L, the ALT [6] was 26 IU/L and the AST [6] was 52.4 IU/L. The BUN [6] was 17 mg/dL, the CRE [6] was 0.4 mg/dL and the DBIL [6] was 0.072 mg/dL. The IP [6] was 8.2 mg/dL, the K [6] was 4.1 meq/L and the LDH [6] was 165.8 IU/L. For the same compound, the Na [6] was 140.8 meq/L, the RALB [6] was 2.4 g/dL and the TBIL [6] was 0.1 mg/dL. The TC [6] was 71.6 mg/dL, the TG [6] was 110.4 mg/dL and the TP [6] was 4.9 g/dL. It also gave a gamma-GTP [6] of 1.2 IU/L, a TERMINAL_BW [7] of 231.5 g and a TERMINAL_BW [8] of 312.2 g. For the same compound, the Bas [7] was 0.6%, the Eos [7] was 0.6% and the Fbg [7] was 379.2 mg/dL. For the same compound, the Lym [7] was 55.6%, the MCH [7] was 20.6 pg and the MCHC [7] was 32.5%. The MCV [7] was 63.4 fL, the Mono [7] was 4.8% and the Neu [7] was 36.6%. For the same compound, the PT [7] was 12 s, the Plat [7] was 251.1 x10_4/uL and the RBC [7] was 387 x10_4/ul. The Ret [7] was 17.2%, the WBC [7] was 145.2 x10_2/uL and the Bas [8] was 1%. For the same compound, the Eos [8] was 0%, the Fbg [8] was 283.5 mg/dL and the Lym [8] was 62%. For the same compound, the MCH [8] was 20.8 pg, the MCHC [8] was 33% and the MCV [8] was 63 fL. It also gave a Mono [8] of 4%, a Neu [8] of 32% and a PT [8] of 11.5 s. It also gave a Plat [8] of 174 x10_4/uL, an RBC [8] of 636.5 x10_4/ul and a Ret [8] of 8.5%. It also gave a WBC [8] of 190.7 x10_2/uL, a KIDNEY_L [7] of 1.1 g and a KIDNEY_R [7] of 1.1 g. For the same compound, the KIDNEY_TOTAL [7] was 2.2 g, the KIDNEY_L [8] was 1.5 g and the KIDNEY_R [8] was 1.5 g. The KIDNEY_TOTAL [8] was 3 g, the ALP [7] was 1681.8 IU/L and the ALT [7] was 18 IU/L. For the same compound, the AST [7] was 74 IU/L, the BUN [7] was 53.4 mg/dL and the CRE [7] was 0.5 mg/dL. The DBIL [7] was 0.1 mg/dL, the GLC [7] was 153 mg/dL and the IP [7] was 9.7 mg/dL. It also gave a K [7] of 5.8 meq/L, an LDH [7] of 221.2 IU/L and a Na [7] of 136 meq/L. The RALB [7] was 2.1 g/dL, the TBIL [7] was 0.2 mg/dL and the TC [7] was 66 mg/dL. It also gave a TG [7] of 111.4 mg/dL, a TP [7] of 5.1 g/dL and a gamma-GTP [7] of 7.4 IU/L. For the same compound, the ALP [8] was 580.5 IU/L, the ALT [8] was 32.5 IU/L and the AST [8] was 67 IU/L. For the same compound, the BUN [8] was 16 mg/dL, the CRE [8] was 0.4 mg/dL and the DBIL [8] was 0.095 mg/dL. The IP [8] was 7.5 mg/dL, the K [8] was 4.2 meq/L and the LDH [8] was 145.5 IU/L. For the same compound, the Na [8] was 142 meq/L, the RALB [8] was 3 g/dL and the TBIL [8] was 0.2 mg/dL. For the same compound, the TC [8] was 70 mg/dL, the TG [8] was 139.5 mg/dL and the TP [8] was 5.5 g/dL. For the same compound, the gamma-GTP [8] was 1 IU/L.
